Key:
sugar beet = assay: Test B pre/postemergence sugar beet; assay type: in vivo, Beta vulgaris
Procedure, shortened: (§1)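 Response is a visual 0-to-10 score relative to untreated plants, where 0 means no effect and 10 means complete control, taken twelve to sixteen days after application. Treatments went onto soil at planting and onto foliage of 1- to 4-leaf plants, using a surfactant-containing non-phytotoxic solvent.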

bedstraw = assay: Test B pre/postemergence bedstraw; assay type: in vivo, Galium aparine
Procedure, shortened: as §1

wheat = assay: Test B pre/postemergence wheat; assay type: in vivo, Triticum aestivum
Procedure, shortened: as §1

wild oat = assay: Test B pre/postemergence wild oat; assay type: in vivo, Avena fatua
Procedure, shortened: as §1

rape = assay: Test B pre/postemergence rape; assay type: in vivo, Brassica napus
Procedure, shortened: as §1

surinam grass = assay: Test B pre/postemergence surinam grass; assay type: in vivo, Brachiaria decumbens; conditions: Postemergence
Procedure, shortened: as §1

velvetleaf = assay: Test B pre/postemergence velvetleaf; assay type: in vivo, Abutilon theophrasti
Procedure, shortened: as §1

giant foxtail = assay: Test B pre/postemergence giant foxtail; assay type: in vivo, Setaria faberii
Procedure, shortened: as §1

soybean = assay: Test B pre/postemergence soybean; assay type: in vivo, Glycine max
Procedure, shortened: as §1

crabgrass = assay: Test B pre/postemergence crabgrass; assay type: in vivo, Digitaria sanguinalis
Procedure, shortened: as §1

cocklebur = assay: Test B pre/postemergence cocklebur; assay type: in vivo, Xanthium strumarium
Procedure, shortened: as §1

blackgrass = assay: Test B pre/postemergence blackgrass; assay type: in vivo, Alopecurus myosuroides
Procedure, shortened: as §1

purple nutsedge = assay: Test B pre/postemergence purple nutsedge; assay type: in vivo, Cyperus rotundus
Procedure, shortened: as §1

morningglory = assay: Test B pre/postemergence morningglory; assay type: in vivo, Ipomoea hederacea
Procedure, shortened: as §1

corn = assay: Test B pre/postemergence corn; assay type: in vivo, Zea mays
Procedure, shortened: as §1

pigweed = assay: Test B pre/postemergence pigweed; assay type: in vivo, Amaranthus retroflexus
Procedure, shortened: as §1

[1] = Postemergence, Rate 62 g/ha, scale 0 to 10, 0 is no effect, 10 is complete control
[2] = Postemergence, Rate 125 g/ha, scale of 0 to 10 where 0 is no effect and 10 is complete control
[3] = Preemergence, Rate 125 g/ha, scale of 0 to 10 where 0 is no effect and 10 is complete control
[4] = Preemergence, Rate 250 g/ha, scale 0 (no effect) to 10 (complete control)
[5] = Rate 62 g/ha, Preemergence, scale 0 to 10
[6] = Rate 250 g/ha, Postemergence, scale 0 to 10, 0 is no effect, 10 is complete control
[7] = Rate 500 g/ha, Postemergence, scale 0 to 10, 0 is no effect, 10 is complete control
[8] = Rate 500 g/ha, Preemergence, scale 0 to 10 (0 no effect, 10 complete control)

CC(C)N(C(=O)n1oc(=O)n(C(C)C(=S)N(C)C)c1=O)c1ccc(F)cc1F (stereo not shown) [Compound 739]
Plant response rating, Sugarbeets (sugar beet; [1]): 3
Sugarbeets plant response rating (sugar beet; [2]): 3
Plant response rating, Sugarbeets (sugar beet; [3]): 2
Sugarbeets plant response rating (sugar beet; [4]): 2
Sugarbeets plant response rating (sugar beet; [5]): 2
Sugarbeets plant response rating (sugar beet; [6]): 3
Sugarbeets plant response rating (sugar beet; [7]): 4
Sugarbeets plant response rating (sugar beet; [8]): 4
Plant response rating, Bedstraw (bedstraw; [1]): 3
Bedstraw plant response rating (bedstraw; [2]): 3
Plant response rating, Bedstraw (bedstraw; [3]): 10
Bedstraw plant response rating (bedstraw; [4]): 10
Bedstraw plant response rating (bedstraw; [5]): 0
Bedstraw plant response rating (bedstraw; [6]): 4
Bedstraw plant response rating (bedstraw; [7]): 6
Bedstraw plant response rating (bedstraw; [8]): 10
Plant response rating, Wheat (wheat; [1]): 0
Wheat plant response rating (wheat; [2]): 0
Plant response rating, Wheat (wheat; [3]): 0
Wheat plant response rating (wheat; [4]): 0
Wheat plant response rating (wheat; [5]): 0
Wheat plant response rating (wheat; [6]): 2
Wheat plant response rating (wheat; [7]): 6
Wheat plant response rating (wheat; [8]): 3
Plant response rating, Wild oats (wild oat; [1]): 0
Wild oats plant response rating (wild oat; [2]): 0
Plant response rating, Wild oats (wild oat; [3]): 0
Wild oats plant response rating (wild oat; [4]): 0
Wild oats plant response rating (wild oat; [5]): 0
Wild oats plant response rating (wild oat; [6]): 0
Wild oats plant response rating (wild oat; [7]): 0
Wild oats plant response rating (wild oat; [8]): 4
Plant response rating, Rape (rape; [1]): 0
Rape plant response rating (rape; [2]): 0
Plant response rating, Rape (rape; [3]): 0
Rape plant response rating (rape; [4]): 0
Rape plant response rating (rape; [5]): 0
Rape plant response rating (rape; [6]): 0
Rape plant response rating (rape; [7]): 2
Rape plant response rating (rape; [8]): 2
Plant response rating, B. signalgrass (surinam grass; Rate 62 g/ha, scale 0 to 10, 0 is no effect, 10 is complete control): 0
B. signalgrass plant response rating (surinam grass; Rate 125 g/ha, scale of 0 to 10 where 0 is no effect and 10 is complete control): 2
B. signalgrass plant response rating (surinam grass; Rate 250 g/ha, scale 0 to 10, 0 is no effect, 10 is complete control): 2
B. signalgrass plant response rating (surinam grass; Rate 500 g/ha, scale 0 to 10, 0 is no effect, 10 is complete control): 7
Plant response rating, Velvetleaf (velvetleaf; [1]): 0
Velvetleaf plant response rating (velvetleaf; [2]): 0
Plant response rating, Velvetleaf (velvetleaf; [3]): 0
Velvetleaf plant response rating (velvetleaf; [4]): 2
Velvetleaf plant response rating (velvetleaf; [5]): 0
Velvetleaf plant response rating (velvetleaf; [6]): 0
Velvetleaf plant response rating (velvetleaf; [7]): 3
Velvetleaf plant response rating (velvetleaf; [8]): 3
Plant response rating, Giant foxtail (giant foxtail; [1]): 7
Giant foxtail plant response rating (giant foxtail; [2]): 9
Plant response rating, Giant foxtail (giant foxtail; [3]): 9
Giant foxtail plant response rating (giant foxtail; [4]): 9
Giant foxtail plant response rating (giant foxtail; [5]): 9
Giant foxtail plant response rating (giant foxtail; [6]): 9
Giant foxtail plant response rating (giant foxtail; [7]): 9
Giant foxtail plant response rating (giant foxtail; [8]): 10
Plant response rating, Soybean (soybean; [1]): 3
Soybean plant response rating (soybean; [2]): 3
Plant response rating, Soybean (soybean; [3]): 0
Soybean plant response rating (soybean; [4]): 0
Soybean plant response rating (soybean; [5]): 0
Soybean plant response rating (soybean; [6]): 4
Soybean plant response rating (soybean; [7]): 5
Soybean plant response rating (soybean; [8]): 0
Plant response rating, Crabgrass (crabgrass; [1]): 4
Crabgrass plant response rating (crabgrass; [2]): 9
Plant response rating, Crabgrass (crabgrass; [3]): 2
Crabgrass plant response rating (crabgrass; [4]): 9
Crabgrass plant response rating (crabgrass; [5]): 2
Crabgrass plant response rating (crabgrass; [7]): 9
Crabgrass plant response rating (crabgrass; [8]): 10
Plant response rating, Cocklebur (cocklebur; [1]): 2
Cocklebur plant response rating (cocklebur; [2]): 2
Plant response rating, Cocklebur (cocklebur; [3]): 0
Cocklebur plant response rating (cocklebur; [4]): 0
Cocklebur plant response rating (cocklebur; [5]): 0
Cocklebur plant response rating (cocklebur; [6]): 2
Cocklebur plant response rating (cocklebur; [7]): 3
Cocklebur plant response rating (cocklebur; [8]): 0
Plant response rating, Blackgrass (blackgrass; [1]): 0
Blackgrass plant response rating (blackgrass; [2]): 3
Plant response rating, Blackgrass (blackgrass; [3]): 3
Blackgrass plant response rating (blackgrass; [4]): 3
Blackgrass plant response rating (blackgrass; [5]): 2
Blackgrass plant response rating (blackgrass; [6]): 3
Blackgrass plant response rating (blackgrass; [7]): 6
Blackgrass plant response rating (blackgrass; [8]): 10
Plant response rating, Nutsedge (purple nutsedge; [1]): 0
Plant response rating, Nutsedge (purple nutsedge; [3]): 0
Nutsedge plant response rating (purple nutsedge; [4]): 0
Nutsedge plant response rating (purple nutsedge; [5]): 0
Nutsedge plant response rating (purple nutsedge; [6]): 0
Nutsedge plant response rating (purple nutsedge; [7]): 3
Nutsedge plant response rating (purple nutsedge; [8]): 0
Plant response rating, Morningglory (morningglory; [1]): 6
Plant response rating, Morningglory (morningglory; [3]): 0
Morningglory plant response rating (morningglory; [4]): 0
Morningglory plant response rating (morningglory; [5]): 0
Morningglory plant response rating (morningglory; [6]): 6
Morningglory plant response rating (morningglory; [7]): 8
Morningglory plant response rating (morningglory; [8]): 0
Plant response rating, Corn (corn; [1]): 0
Corn plant response rating (corn; [2]): 0
Plant response rating, Corn (corn; [3]): 0
Corn plant response rating (corn; [4]): 2
Corn plant response rating (corn; [5]): 0
Corn plant response rating (corn; [6]): 0
Corn plant response rating (corn; [7]): 0
Corn plant response rating (corn; [8]): 2
Plant response rating, Redroot pigweed (pigweed; [1]): 0
Redroot pigweed plant response rating (pigweed; [2]): 3
Plant response rating, Redroot pigweed (pigweed; [3]): 2
Redroot pigweed plant response rating (pigweed; [4]): 9
Redroot pigweed plant response rating (pigweed; [5]): 2
Redroot pigweed plant response rating (pigweed; [6]): 3
Redroot pigweed plant response rating (pigweed; [7]): 5
Redroot pigweed plant response rating (pigweed; [8]): 10

Source: US6737383B1, “Herbicidal oxadiazolidines” (priority 1999, dated 2004)
